According to the NIST ThermoML archive (doi:10.1016/j.tca.2011.11.036):
Numbers after ± are expanded uncertainties.

Test: molar heat capacity at constant pressure; xn = mol fraction of the nth substance listed
Conditions: 101 kPa, Liquid, Small sample (50 mg) DSC

| Structure (SMILES) | molar heat capacity at constant pressure (303.15 K, x1 = 0.3333) [J/K/mol] | molar heat capacity at constant pressure (308.15 K, x1 = 0.3333) [J/K/mol] | molar heat capacity at constant pressure (313.15 K, x1 = 0.3333) [J/K/mol] | molar heat capacity at constant pressure (318.15 K, x1 = 0.3333) [J/K/mol] | molar heat capacity at constant pressure (323.15 K, x1 = 0.3333) [J/K/mol] | molar heat capacity at constant pressure (328.15 K, x1 = 0.3333) [J/K/mol] | molar heat capacity at constant pressure (333.15 K, x1 = 0.3333) [J/K/mol] | molar heat capacity at constant pressure (338.15 K, x1 = 0.3333) [J/K/mol] | molar heat capacity at constant pressure (343.15 K, x1 = 0.3333) [J/K/mol] | molar heat capacity at constant pressure (348.15 K, x1 = 0.3333) [J/K/mol] | molar heat capacity at constant pressure (353.15 K, x1 = 0.3333) [J/K/mol] | also measured |
| --- | --- | --- | --- | --- | --- | --- | --- | --- | --- | --- | --- | --- |
| C[N+](C)(C)CCO.[Cl-] [choline chloride] + OCC(O)CO | 237.7 ± 3.7 | 239.1 ± 3.7 | 240.8 ± 3.7 | 241.9 ± 3.7 | 243.5 ± 3.8 | 244.9 ± 3.8 | 246.9 ± 3.8 | 248.4 ± 3.8 | 250.3 ± 3.9 | 252.1 ± 3.9 | 254.3 ± 3.9 | – |
| C[N+](C)(C)CCO.[Cl-] [choline chloride] + OCCO | 190.8 ± 3 | 192.2 ± 3 | 194 ± 3 | 194.9 ± 3 | 196.4 ± 3 | 197.6 ± 3.1 | 199.2 ± 3.1 | 200.6 ± 3.1 | 202.1 ± 3.1 | 203.9 ± 3.2 | 205.6 ± 3.2 | – |
| NC(N)=O [urea] + C[N+](C)(C)CCO.[Cl-] | – | – | – | – | – | – | – | – | – | – | – | molar heat capacity at constant pressure (303.15 K, x2 = 0.3333): 181.4 ± 2.8 J/K/mol; molar heat capacity at constant pressure (308.15 K, x2 = 0.3333): 182.2 ± 2.8 J/K/mol; molar heat capacity at constant pressure (313.15 K, x2 = 0.3333): 183.2 ± 2.8 J/K/mol; molar heat capacity at constant pressure (318.15 K, x2 = 0.3333): 183.5 ± 2.8 J/K/mol; molar heat capacity at constant pressure (323.15 K, x2 = 0.3333): 184.5 ± 2.9 J/K/mol; molar heat capacity at constant pressure (328.15 K, x2 = 0.3333): 185.3 ± 2.9 J/K/mol; molar heat capacity at constant pressure (333.15 K, x2 = 0.3333): 186.4 ± 2.9 J/K/mol; molar heat capacity at constant pressure (338.15 K, x2 = 0.3333): 187.4 ± 2.9 J/K/mol; molar heat capacity at constant pressure (343.15 K, x2 = 0.3333): 188.5 ± 3 J/K/mol; molar heat capacity at constant pressure (348.15 K, x2 = 0.3333): 189.5 ± 2.9 J/K/mol; molar heat capacity at constant pressure (353.15 K, x2 = 0.3333): 190.8 ± 3.1 J/K/mol |
